Measured values taken from patent US5053070A, “Pyrimidine derivatives, preparation processes thereof, herbicide containing the same, and herbicidal compositions containing the same along with other active ingredient” (Mitsui Toatsu Chemicals, Incorporated, priority 1988, dated 1991).
Where two headings read alike, the source gives them in different places.

What was measured:
Type in all cases: in vivo
[1] = test system: redroot pigweed; assay: Upland foliar application test by mixed formulations, concentration gradient (Test 8)
Description: (§1) Resin-made 1/10,000-are pots were filled with the soil of an upland field. Redroot pigweed and johnsongrass were separately seeded and were allowed to germinate in a green house. When each plant grew to the stage of 2-3 leaves, emulsions formulated with concentration gradient from predetermined amounts of two test compounds of different kinds in a similar manner to the method described in Formulation Example 16 was diluted with water to a predetermined dilution rate and then sprayed at an application rate equal to 5 l per are onto the foliage of each plant by means of a pressure-operated ULV (ultra low volume) sprayer. Influence to the weeds were observed on the 40th day after the spray of the herbicides. The results are shown in Table 9, In the table, Ea have the same meanings as in Test 7, and Ea>Ec indicates the existence of synergistic action while Ea<Ec indicates the existence of antagonistic action.

[2] = test system: johnsongrass; assay: as above
Description: as §1

[3] = test system: redroot pigweed; assay: Upland foliar application test by mixed formulations (Test 7); conditions: Amaranthus retroflexus, 720 h, read-out: Herbicidal effects (%) Redrood pigweed Ea
Description: (§2) Resin-made 1/10,000-are pots were filled with the soil of an upland field. Redroot pigweed, morningglories, johnsongrass, barnyardgrass and green foxtail were separately seeded and were allowed to germinate in a green house. When each plant grew to the stage of 2-3 leaves, an emulsion formulated from predetermined amounts of two test compounds of different kinds in a similar manner to the method described in Formulation Example 16 was diluted with water to a predetermined dilution rate and then sprayed at an application rate equal to 5 l per are onto the foliage of each plant by means of a pressure-operated ULV (ultra low volume) sprayer. Influence to the weeds were observed on the 30th day after the spray of the herbicides. In the table, each Ea means an acutally measured value of herbicidal activities when two kinds of herbicides were mixed. Each Ec is an expected value for herbicidal activities, calculated in accordance with the below-described calculation formula proposed by Colby et al. [Colby, S. R., Weed 15, 20-22 (1967)]. Ea>Ec indicates the existence of synergistic action while […] action. [formula] Ec: Growth inhibition rate (%) expected when Ingredient I and Ingredient II are mixed.
(§3) Ex: Growth inhibition rate (%) when treated with Ingredient I alone.
(§4) Ey: Growth inhibition rate (%) when treated with Ingredient II alone.

[4] = test system: johnsongrass; assay: as above; conditions: Sorghum halepense, 720 h; for pest or weed control at 300 g/ha: read-out: Herbicidal effects (%) Johnsongrass Ea, applied alone, 0.3 kg/ha, foliar, 30th day; for pest or weed control at 1000 g/ha: read-out: Herbicidal effects (%) Johnsongrass Ea, applied alone, 1 kg/ha, foliar, 30th day
Description: as §2, §3, §4

[5] = test system: morningglories; assay: as above; conditions: Ipomoea, 720 h, read-out: Herbicidal effects (%) Morningglory Ea
Description: as §2, §3, §4

[6] = test system: green foxtail; assay: as above; conditions: Setaria viridis, 720 h, read-out: Herbicidal effects (%) Green foxtail Ea
Description: as §2, §3, §4

[7] = test system: barnyardgrass; assay: as above; conditions: Echinochloa crus-galli, 720 h, read-out: Herbicidal effects (%) Barnyardgrass Ea
Description: as §2, §3, §4

[8] = Amaranthus retroflexus, 960 h, applied alone, 2 g/a, 40th day, read-out: Herbicidal effects Redrood pigweed Ea
[9] = Amaranthus retroflexus, 960 h, applied alone, 4 g/a, 40th day, read-out: Herbicidal effects Redrood pigweed Ea
[10] = Amaranthus retroflexus, 960 h, applied alone, 8 g/a, 40th day, read-out: Herbicidal effects Redrood pigweed Ea
[11] = Sorghum halepense, 960 h, applied alone, 2 g/a, 40th day, read-out: Herbicidal effects Johnsongrass Ea
[12] = Sorghum halepense, 960 h, applied alone, 4 g/a, 40th day, read-out: Herbicidal effects Johnsongrass Ea
[13] = Sorghum halepense, 960 h, applied alone, 8 g/a, 40th day, read-out: Herbicidal effects Johnsongrass Ea
[14] = Amaranthus retroflexus, 960 h, read-out: Herbicidal effects Redrood pigweed Ea
[15] = Sorghum halepense, 960 h, read-out: Herbicidal effects Johnsongrass Ea
[16] = applied alone, 0.2 kg/ha, 30th day
[17] = applied alone, 0.3 kg/ha, 30th day
[18] = read-out: Herbicidal effects (%) Johnsongrass Ea, applied alone, 0.5 kg/ha, foliar, 30th day

Compound: CC(C)c1ccc(NC(=O)N(C)C)cc1 [Isoproturon, 3-(4-isopropylphenyl)-1,1-dimethylurea]
- pest or weed control at 200 g/ha [1, 8]: 10%
- pest or weed control at 400 g/ha [1, 9]: 20%
- pest or weed control at 800 g/ha [1, 10]: 40%
- pest or weed control at 200 g/ha [2, 11]: 0%
- pest or weed control at 400 g/ha [2, 12]: 10%
- pest or weed control at 800 g/ha [2, 13]: 20%

Compound: CCNc1nc(Cl)nc(NC(C)C)n1 [atrazine, 2-chloro-4-ethylamino-6-isopropylamino-1,3,5-triazine]
- pest or weed control at 200 g/ha [1, 14]: 10%
- pest or weed control at 400 g/ha [1, 14]: 30%
- pest or weed control at 800 g/ha [1, 14]: 40%
- pest or weed control at 200 g/ha [2, 15]: 0%
- pest or weed control at 400 g/ha [2, 15]: 10%
- pest or weed control at 800 g/ha [2, 15]: 10%
- pest or weed control at 800 g/ha [3]: 40%
- pest or weed control at 800 g/ha ([4]; read-out: Herbicidal effects (%) Johnsongrass Ea, applied alone, 0.8 kg/ha, foliar, 30th day): 10%

Compound: CON(C)C(=O)Nc1ccc(Cl)c(Cl)c1 [linuron, 3-(3,4-dichlorophenyl)-1-methoxy-1-methylurea]
- pest or weed control at 200 g/ha [1, 14]: 40%
- pest or weed control at 400 g/ha [1, 14]: 70%
- pest or weed control at 800 g/ha [1, 14]: 85%
- pest or weed control at 200 g/ha [2, 15]: 0%
- pest or weed control at 400 g/ha [2, 15]: 10%
- pest or weed control at 800 g/ha [2, 15]: 20%
- pest or weed control at 300 g/ha [5]: 30%
- pest or weed control at 300 g/ha [4]: 10%

Compound: CSc1nnc(C(C)(C)C)c(=O)n1N [metribuzin, 4-amino-6-tert-butyl-3-methylthio-1,2,4-triazin-5(4H)-one, reference compound]
- pest or weed control at 200 g/ha [3, 16]: 30%
- pest or weed control at 200 g/ha [6, 16]: 10%

Compound: CCC/C(=N\OCC)C1=C(O)CC(CC(C)SCC)CC1=O (stereo not shown) [sethoxydim, reference compound]
- pest or weed control at 100 g/ha [1, 14]: 0%
- pest or weed control at 200 g/ha [1, 14]: 0%
- pest or weed control at 100 g/ha [2, 15]: 70%
- pest or weed control at 200 g/ha [2, 15]: 85%
- pest or weed control at 200 g/ha [3]: 0%
- pest or weed control at 200 g/ha [5]: 0%
- pest or weed control at 200 g/ha [6]: 100%
- pest or weed control at 200 g/ha ([4]; read-out: Herbicidal effects (%) Johnsongrass Ea, applied alone, 0.2 kg/ha, foliar, 30th day): 95%
- pest or weed control at 200 g/ha [7]: 0%

Compound: CCc1cccc(CC)c1N(COC)C(=O)CCl [alachlor, N-methoxymethyl-2',6'-diethyl-2-chloroacetanilide, reference compound]
- pest or weed control at 1000 g/ha [3]: 40%
- pest or weed control at 1000 g/ha [4]: 30%

Compound: CCCC(C)C(=O)Nc1ccc(C(C)C)c(Cl)c1 (stereo not shown) [MT-5950, N-(3-chloro-4-isopropylphenyl)-2-methylpentamide]
- pest or weed control at 200 g/ha [1, 8]: 30%
- pest or weed control at 400 g/ha [1, 9]: 70%
- pest or weed control at 800 g/ha [1, 10]: 85%
- pest or weed control at 200 g/ha [2, 11]: 10%
- pest or weed control at 400 g/ha [2, 12]: 10%
- pest or weed control at 800 g/ha [2, 13]: 20%

Compound: O=C(O)c1cc(Oc2ccc(C(F)(F)F)cc2Cl)ccc1[N+](=O)[O-] [blazer, reference compound]
- pest or weed control at 300 g/ha [3, 17]: 100%
- pest or weed control at 300 g/ha [5, 17]: 100%
- pest or weed control at 300 g/ha [6, 17]: 40%
- pest or weed control at 300 g/ha [7, 17]: 100%

Compound: CN(C)C(=O)Nc1ccc(Cl)c(Cl)c1 [diuron, 3-(3,4-dichlorophenyl)-1,1-dimethylurea]
- pest or weed control at 200 g/ha [1, 14]: 30%
- pest or weed control at 400 g/ha [1, 14]: 70%
- pest or weed control at 800 g/ha [1, 14]: 85%
- pest or weed control at 200 g/ha [2, 15]: 0%
- pest or weed control at 400 g/ha [2, 15]: 10%
- pest or weed control at 800 g/ha [2, 15]: 20%
- pest or weed control at 300 g/ha [3]: 40%
- pest or weed control at 300 g/ha [4]: 10%

Compound: CCc1cccc(C)c1N(C(=O)CCl)C(C)COC (stereo not shown) [metolachlor, 2-chloro-2'-ethyl-6'-methyl-N-(2-methoxy-1-methylethyl)acetanilide, reference compound]
- pest or weed control at 1000 g/ha [3]: 40%
- pest or weed control at 1000 g/ha [6]: 10%

Compound: 2-methylthio-4-methylamino-6-isopropylamino-1,3,5-triazine [Ametryn]
- Herbicidal effects Redrood pigweed Ea ([1]; applied alone, 2 g/a, 40th day): 10%
- Herbicidal effects Redrood pigweed Ea ([1]; applied alone, 4 g/a, 40th day): 20%
- Herbicidal effects Redrood pigweed Ea ([1]; applied alone, 8 g/a, 40th day): 30%
- Herbicidal effects Johnsongrass Ea ([2]; applied alone, 2 g/a, 40th day): 0%
- Herbicidal effects Johnsongrass Ea ([2]; applied alone, 4 g/a, 40th day): 10%
- Herbicidal effects Johnsongrass Ea ([2]; applied alone, 8 g/a, 40th day): 20%

Compound: CCC(=O)Nc1ccc(Cl)c(Cl)c1 [propanil, N-(3,4-dichlorophenyl)propanamide]
- pest or weed control at 2000 g/ha [1, 14]: 30%
- pest or weed control at 4000 g/ha [1, 14]: 70%
- pest or weed control at 8000 g/ha [1, 14]: 70%
- pest or weed control at 2000 g/ha [2, 15]: 20%
- pest or weed control at 4000 g/ha [2, 15]: 30%
- pest or weed control at 8000 g/ha [2, 15]: 50%
- pest or weed control at 3000 g/ha ([4]; read-out: Herbicidal effects (%) Johnsongrass Ea, applied alone, 3 kg/ha, foliar, 30th day): 10%
- pest or weed control at 3000 g/ha [7]: 40%

Compound: O=C(O)c1ccccc1C(=O)Nc1cccc2ccccc12 [naptalam, 2-(1-naphthalenylaminocarbonyl)benzoic acid]
- pest or weed control at 400 g/ha [1, 14]: 0%
- pest or weed control at 800 g/ha [1, 14]: 10%
- pest or weed control at 1600 g/ha [1, 14]: 20%
- pest or weed control at 400 g/ha [2, 15]: 0%
- pest or weed control at 800 g/ha [2, 15]: 10%
- pest or weed control at 1600 g/ha [2, 15]: 20%
- pest or weed control at 1000 g/ha [3]: 10%
- pest or weed control at 1000 g/ha [4]: 10%

Compound: CN(C)C(=O)Nc1cccc(C(F)(F)F)c1 [fluometuron, 1,1-dimethyl-3-(3-trifluoromethylphenyl)urea]
- pest or weed control at 200 g/ha [1, 14]: 20%
- pest or weed control at 400 g/ha [1, 14]: 30%
- pest or weed control at 800 g/ha [1, 14]: 50%
- pest or weed control at 200 g/ha [2, 15]: 0%
- pest or weed control at 400 g/ha [2, 15]: 10%
- pest or weed control at 800 g/ha [2, 15]: 20%
- pest or weed control at 500 g/ha [3]: 30%
- pest or weed control at 500 g/ha [4, 18]: 30%

Compound: CCNc1nc(Cl)nc(NC(C)(C)C#N)n1 [cyanazine, 2-(2-chloro-4-ethylamino-1,3,5-triazine-6-ylamino)-2-methylpropionitrile]
- pest or weed control at 400 g/ha [1, 14]: 10%
- pest or weed control at 800 g/ha [1, 14]: 30%
- pest or weed control at 1600 g/ha [1, 14]: 50%
- pest or weed control at 400 g/ha [2, 15]: 0%
- pest or weed control at 800 g/ha [2, 15]: 10%
- pest or weed control at 1600 g/ha [2, 15]: 20%
- pest or weed control at 1000 g/ha [3]: 40%
- pest or weed control at 1000 g/ha [4]: 10%

Compound: CC(C)N1C(=O)c2ccccc2NS1(=O)=O [bentazon, 3-isopropyl-(1H)-2,1,3-benzothiadiazin-4-(3H)-one-2,2-dioxide]
- pest or weed control at 200 g/ha [1, 8]: 30%
- pest or weed control at 400 g/ha [1, 9]: 40%
- pest or weed control at 800 g/ha [1, 10]: 70%
- pest or weed control at 200 g/ha [2, 11]: 0%
- pest or weed control at 400 g/ha [2, 12]: 0%
- pest or weed control at 800 g/ha [2, 13]: 20%
- pest or weed control at 500 g/ha ([3]; applied alone, 0.5 kg/ha, 30th day): 40%
- pest or weed control at 500 g/ha ([4]; applied alone, 0.5 kg/ha, 30th day, read-out: Herbicidal effects (%) Johnsongrass Ea): 0%

Compound: CSc1nc(NC(C)C)nc(NC(C)C)n1 [prometryn, 2-methylthio-4,6-bis(isopropylamino)-1,3,5-triazine]
- pest or weed control at 200 g/ha [1, 14]: 10%
- pest or weed control at 400 g/ha [1, 14]: 20%
- pest or weed control at 800 g/ha [1, 14]: 40%
- pest or weed control at 200 g/ha [2, 15]: 0%
- pest or weed control at 400 g/ha [2, 15]: 10%
- pest or weed control at 800 g/ha [2, 15]: 20%
- pest or weed control at 500 g/ha [5]: 30%
- pest or weed control at 500 g/ha [4, 18]: 20%
